In paper PMC11050443, “Discovery of Strong 3-Nitro-2-Phenyl-2H-Chromene Analogues as Antitrypanosomal Agents and Inhibitors of Trypanosoma cruzi Glucokinase” (International Journal of Molecular Sciences, 2024):
Read-outs that look alike come from different tables or passages of the source.

How the values were obtained:
[1] = biological target: T1, LmG6PDH (Leuconostoc mesenteroides glucose-6-phosphate dehydrogenase) (Leuconostoc mesenteroides, UniProt P11411); assay: Confirmatory assay on the LmG6PDH enzyme-coupled system; type: biochemical; settings: for inhibition at 20 µM: read-out: LmG6PDH Inh20; for LmG6PDH inhibitory effect (in words): 20 µM compound
T1 construct: purchased Worthington Biochemical Corporation
Procedure: Two criteria were examined in order to certify on-target confirmed hits: (a) the assessment of potential inhibition to the LmG6PDH enzyme-coupled system, and (b) the precision of the assay (per inhibitor), performed in quadruplicate (N = 4). Compounds were tested in quadruplicate in a black, round-bottom 96-well microplate in which wells were filled with a buffered solution (50 mM triethanolamine, 150 mM NaCl) amounting to a total volume of 206.5 μL that contained the following reagents at final assay concentrations: LmG6PDH (6.1 μg/mL), NADP^+ (0.54 mM), ATP (0.54 mM), MgCl2 (6.9 mM), DMSO (1.0% by vol.), D-glucose-6-phosphate (0.80 mM), and a 3-nitro-2-phenyl-2H-chromene analogue (20.0 μM). The analogue compounds were pre-incubated with the enzyme system a minimum of 10 min prior to the initiation of the assay. The enzymatic reactions were initiated and terminated similarly as described in the TcGlcK primary screen (vide supra). The production of NADPH was monitored using the VANTAstar-F multi-mode microplate reader set to fluorescent mode, λex = 340 nm and λem = 485 nm, over a 120-s timeframe.

[2] = biological target: T2, TcGlcK (Trypanosoma cruzi glucokinase) (Trypanosoma cruzi, UniProt Q4E4E1); assay: TcGlcK primary screening assay (LmG6PDH-coupled, Dixon plots); type: biochemical; settings: for Ki: Dixon plots, 0.4, 0.6, 0.8 mM D-glucose, N = 1 unless marked, N = 3 for compounds 1, 4, 9, 11; for Mode of TcGlcK inhibition: Cornish-Bowden method, Dixon plots of [D-Glc]/V versus inhibitor concentration
T2 construct: made in house; host or cells: Escherichia coli BL21(DE3)
T2 sequence (Q4E4E1 1-376): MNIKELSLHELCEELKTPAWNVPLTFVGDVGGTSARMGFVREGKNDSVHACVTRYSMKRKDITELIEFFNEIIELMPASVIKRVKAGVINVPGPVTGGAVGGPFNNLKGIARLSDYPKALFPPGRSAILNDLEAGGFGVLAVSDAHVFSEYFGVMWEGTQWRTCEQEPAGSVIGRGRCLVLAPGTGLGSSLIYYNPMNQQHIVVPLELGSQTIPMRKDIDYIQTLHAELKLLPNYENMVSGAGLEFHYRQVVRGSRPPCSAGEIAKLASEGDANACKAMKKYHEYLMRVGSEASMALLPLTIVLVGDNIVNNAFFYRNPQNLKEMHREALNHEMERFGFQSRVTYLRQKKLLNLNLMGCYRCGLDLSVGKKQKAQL
Procedure: A primary screening assay was carried out for TcGlcK with the 3-nitro-2-phenyl-2H-chromene analogues. The data was subsequently processed for respective Ki values in order to assess enzyme inhibition. […] The primary screening assay was performed with the substrate D-glucose in various concentrations of 0.4 mM, 0.6 mM, and 0.8 mM to produce Dixon plots with different slopes. Each of the 3-nitro-2-phenyl-2H-chromene analogues were originally prepared at a working concentration of 1.0 mM and were dissolved in 100% DMSO. The final assay concentrations of the analogue compounds (inhibitors) ranged from 0.0–10.0 μM. The analogue compounds were pre-incubated with the enzyme system a minimum of 10 min prior to the initiation of the assay. The enzymatic reaction was carried out at room temperature (22 °C; temperature optimum) using ATP to initiate the reaction, and termination was performed after 120 s (time optimum) by stopping the reaction with the addition of an EDTA (pH 8.0) solution, to a final concentration of 100 mM. TcGlcK enzyme activity was analyzed for the production of NADPH. Each completed reaction mixture was added into a black, round-bottom microplate and scanned by a VANTAstar-F multi-mode microplate reader (BMG LABTECH, Inc.; Cary, NC, USA). The instrument was set to fluorescence mode and the wavelengths (λex = 340 nm; λem = 485 nm) were set to observe the relative fluorescence units of NADPH [40]. The enzyme-inhibition kinetics Ki value determination and the mode of inhibition was determined using the Cornish–Bowden Dixon Plot analysis method.

[3] = test system: T. brucei brucei (427 strain) bloodstream form; assay: In vitro T. brucei biological assay (Alamar blue); type: cell-based, Trypanosoma brucei brucei; settings: for anti-T. brucei activity (in words): T. brucei brucei 427 strain bloodstream form
Procedure: The in vitro cell culture preparation of T. brucei brucei (427 strain) trypomastigote bloodstream form followed by treatment with inhibitors has recently been described by Ajayi and colleagues. The 3-nitro-2-phenyl-2H-chromene compounds (inhibitors) that were prepared as 10.0 mM stock solutions in 100% DMSO were thawed from −80 °C to room temperature. HMI-9 medium [Iscove’s modification of DMEM supplemented with 10% FBS, 10% serum plus (SAFC), 0.05 mM bathocuproinesulfonate, 1.5 mM L-cysteine, 1.0 mM hypoxanthine, 0.2 mM β-mercaptoethanol, 0.16 mM thymidine, and 1.0 mM pyruvate] was prepared. In a sterile, round-bottom, 96-well microplate, 100 μL of HMI-9 medium was added to each well. A volume of 2.0 μL of a given compound plus a volume of 98.0 μL of fresh media were both added to a well in the first row of the 96-well microplate; this was performed for each compound to be tested. Solutions were mixed with a micropipette followed by transfer of 100 μL to the next row and repeated. The compound solutions ranged from 0.0781–10.0 μM and this was accomplished by serial dilution using a 2-fold dilution. T. brucei parasites were centrifuged for 10 min at 900× g (without centrifuge breaks). The media was carefully discarded by aspiration and the parasites were resuspended in warm media. Parasites were counted in a Newbauer chamber. Afterwards, the parasites were diluted to 50,000 cells/mL (5000 cells/well) and 100 μL was added to each well of the 96-well microplate using a multichannel pipette. After 48 h, 20.0 μL of Alamar blue was added to each well and the plate was placed into an incubator for 4 h at 37 °C. Fluorescence readings were measured using a Victor Nivo multimode microplate reader (PerkinElmer, Inc.; Shelton, CT, USA) at λex = 530 nm and λem = 590 nm. All measurements were performed in triplicate and IC50 determinations for percent growth inhibition were carried out using GraphPad Prism 10.0. The detergent SDS was used as a positive control and its final solution concentration was 0.5%. Three control experiments were performed, as follows: (a) parasites alone, (b) parasites and 0.5% SDS, and (c) the medium alone.

[4] = percentage of inhibition at 20 µM compound in comparison to controls, N = 4
[5] = Trypanosoma brucei, 48 h, T. brucei brucei 427 strain bloodstream form growth inhibition, N = 3
[6] = Trypanosoma brucei, bound stated in the text for the top seven anti-T. brucei compounds
[7] = T. brucei brucei 427 strain bloodstream form growth inhibition, 48 h, N = 3

T1 sequence (P11411 whole entry): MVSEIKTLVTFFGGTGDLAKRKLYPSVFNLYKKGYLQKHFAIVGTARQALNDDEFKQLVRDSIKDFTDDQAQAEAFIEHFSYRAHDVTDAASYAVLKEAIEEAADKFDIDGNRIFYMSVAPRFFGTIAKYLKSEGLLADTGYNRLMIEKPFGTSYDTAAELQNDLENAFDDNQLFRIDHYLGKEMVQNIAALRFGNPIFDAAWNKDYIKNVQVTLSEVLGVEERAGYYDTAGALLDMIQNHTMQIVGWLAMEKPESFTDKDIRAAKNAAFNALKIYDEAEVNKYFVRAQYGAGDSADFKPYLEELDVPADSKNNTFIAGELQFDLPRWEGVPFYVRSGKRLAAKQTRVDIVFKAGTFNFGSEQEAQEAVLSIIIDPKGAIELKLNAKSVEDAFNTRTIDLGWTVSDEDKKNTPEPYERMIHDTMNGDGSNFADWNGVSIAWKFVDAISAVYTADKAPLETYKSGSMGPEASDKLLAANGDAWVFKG

Row | SMILES | inhibition at 20 µM [1, 4] [%] | Ki [2] [µM] | anti-T. brucei activity (in words) [3] | IC50 [3, 5] [nM] | IC50 [3, 6] [nM] | LmG6PDH inhibitory effect (in words) ([1]; N = 4) | Mode of TcGlcK inhibition [2] | IC50 [3, 7] [nM] | inhibition at 20 µM [1] [%]
1 | CCOc1ccc(C2Oc3c(cc(Br)cc3OC)C=C2[N+](=O)[O-])cc1OC (centres unmarked) [Compound 8, 6-Bromo-2-(4-ethoxy-3-methoxyphenyl)-8-methoxy-3-nitro-2H -chromene] | 0 | 30 | nanomolar potency | 740 ± 140 | < 750 |  |  |  | 
2 | CCOc1ccc(C2Oc3c(Cl)cc(Cl)cc3C=C2[N+](=O)[O-])cc1OCC (centres unmarked) [Compound 9, 6,8-Dichloro-2-(3,4-diethoxyphenyl)-3-nitro-2H -chromene] | 10.1 ± 0.1 | 12.3 ± 5.5 | nanomolar potency | 660 ± 50 | < 750 | did not observe any significant LmG6PDH inhibitory effects | mixed-mode inhibition |  | 
3 | CCOc1ccc(C2Oc3c(Br)cc(Br)cc3C=C2[N+](=O)[O-])cc1OC (centres unmarked) [Compound 6, 6,8-Dibromo-2-(4-ethoxy-3-methoxyphenyl)-3-nitro-2H -chromene] | 16.1 | 6.1 | nanomolar potency | < 550 | < 750 | did not observe any significant LmG6PDH inhibitory effects |  | 360 ± 60 | 
4 | COc1ccc(C2Oc3ccc(Br)cc3C=C2[N+](=O)[O-])cc1OC (centres unmarked) [Compound 4, 6-Bromo-2-(3,4-dimethoxyphenyl)-3-nitro-2H -chromene] | 12.1 | 5.5 ± 1.8 | nanomolar potency | < 550 | < 750 | did not observe any significant LmG6PDH inhibitory effects | mixed-mode inhibition | 440 ± 30 | 
5 | O=[N+]([O-])C1=Cc2ccccc2OC1c1c(Cl)cccc1Cl (centres unmarked) [Compound 13, 2-(2,6-Dichlorophenyl)-3-nitro-2H -chromene] | 0 | 25 |  | 1280 ± 100 |  |  |  |  | 
6 | O=[N+]([O-])C1=Cc2cc(Br)cc(Br)c2OC1c1c(Cl)cccc1Cl (centres unmarked) [Compound 7, 2-(2,6-Dichlorophenyl)-6,8-dibromo-3-nitro-2H -chromene] | 0 | 50 | nanomolar potency | 900 ± 330 |  |  |  |  | 
7 | COc1ccc(C2Oc3c(cc(Br)cc3OC)C=C2[N+](=O)[O-])cc1OC (centres unmarked) [Compound 3, 6-Bromo-2-(3,4-dimethoxyphenyl)-8-methoxy-3-nitro-2H -chromene] | 0 | 24 | nanomolar potency | < 550 | < 750 |  |  | 520 ± 50 | 
8 | O=[N+]([O-])C1=Cc2cc(Br)ccc2OC1c1ccccc1Cl (centres unmarked) [Compound 11, 6-Bromo-2-(2-chlorophenyl)-3-nitro-2H -chromene] | 15 ± 0.1 | 20 ± 4.3 | nanomolar potency | 860 ± 200 |  | did not observe any significant LmG6PDH inhibitory effects | noncompetitive inhibition |  | 
9 | COc1ccc(C2Oc3c(Br)cc(Br)cc3C=C2[N+](=O)[O-])cc1OC (centres unmarked) [Compound 5, 6,8-Dibromo-2-(3,4-dimethoxyphenyl)-3-nitro-2H -chromene] | 0 | 35 | nanomolar potency | < 550 | < 750 |  |  | 420 ± 40 | 
10 | CCOc1ccc(C2Oc3ccc(Br)cc3C=C2[N+](=O)[O-])cc1OCC (centres unmarked) [Compound 2, 6-Bromo-2-(3,4-diethoxyphenyl)-3-nitro-2H -chromene] | 0 | 46 |  | 1190 ± 40 |  |  |  |  | 
11 | CCOc1ccc(C2Oc3ccccc3C=C2[N+](=O)[O-])cc1OCC (centres unmarked) [Compound 10, 2-(3,4-Diethoxyphenyl)-3-nitro-2H -chromene] |  | 23 |  | 1120 ± 300 |  |  |  |  | 0
12 | CCOc1ccc(C2Oc3ccc(Br)cc3C=C2[N+](=O)[O-])cc1OC (centres unmarked) [Compound 1, 6-Bromo-2-(4-ethoxy-3-methoxyphenyl)-3-nitro-2H -chromene] | 15.4 ± 0.1 | 6.2 ± 1.2 | nanomolar potency | 610 ± 30 | < 750 | did not observe any significant LmG6PDH inhibitory effects | uncompetitive inhibition |  | 
